Test results reported in US20260193257A1, “BICYCLIC DERIVATIVES” (Elanco Tiergesundheit AG, priority 2018, published 2026).

Tests used:
[1] = test system: H. contortus (H.c.) larvae; experiment: Ruminant gastrointestinal (H. contortus) larval motility assay; settings: Haemonchus contortus, read-out: EC50 (motility inhibition)
Description: H.c. eggs isolated from lamb fecal matter are allowed to hatch overnight. Test compounds are diluted in DMSO and added to a 96-well plate containing appropriate media. H.c. larvae are added to each well and plates are incubated for the desired time(s). Motility is assessed using an LCD camera imaging system. Percent motility inhibition values are generated relative to the average of the DMSO-only wells.

D. immitis microfilariae = experiment: Dog heart worm microfilariae motility assay; type: cell-based; settings: Dirofilaria immitis, read-out: EC50 (motility inhibition)
L. sigmodontis = experiment: L.s. model in mice; settings: oral gavage, dose between 1×3 mg/kg and 5×32 mg/kg, necropsy 5 weeks after infection
Description: Model Mice, injected subcutaneously with infective L. sigmodontis larvae, were subsequently treated with the test article formulated in eg DMSO/PEG 2/1, by oral gavage at a dose in a range between 1×3 mg/kg up to 5×32 mg/kg (one dose per day for 5 consecutive days). At necropsy 5 weeks after infection, efficacy is calculated by counting developed larvae vs. untreated animals using Abbot's formula.

T. colubriformis = experiment: Gastro intestinal nematodes, infected jird model (T. colubriformis); settings: Jirds (Meriones unguiculatus), oral, Day 6 after infection, dose between 1×3 mg/kg and 1×32 mg/kg, worms recovered from small intestine three days after treatment
Description: Jirds (Meriones unguiculatus), are artificially infected by gavage with third instar larvae each of T. colubriformis and H. contortus. Then treated orally with the test compound formulated in eg DMSO/PEG 2/1, on Day 6 after infection at a dose in a range between 1×3 mg/kg up to 1×32 mg/kg. Three days after treatment, gerbils are euthanized and dissected to recover H. contortus from stomach and T. colubriformis from the small intestine. Efficacy is expressed as a % reduction in worm numbers in comparison with a placebo treated group, using the Abbot's formula.

Q: For `O=C(Nc1cnc2c(-c3cc(Cl)cc(Cl)c3)ccnc2c1N1CCOCC1)[C@H]1CCOc2ccccc21` [Example 6.3, (4S)-N-[8-(3,5-dichlorophenyl)-4-morpholino-1,5-naphthyridin-3-yl]chromane-4-carboxamide], which EC50 [1] is on record?
A: < 1 µg/mL

Q: What about the EC50 (D. immitis microfilariae) of the same molecule?
A: < 0.1 µg/mL

Q: Which EC50 (D. immitis microfilariae) does the source give for `CN(C)c1c(NC(=O)[C@@H]2CCCc3ccccc32)cnc2c(-c3cc(Cl)cc(Cl)c3)cccc12` [Example 1.3, (1R)-N-[8-(3,5-dichlorophenyl)-4-(dimethylamino)-3-quinolyl]tetralin-1-carboxamide] here?
A: < 0.1 µg/mL

Q: With `CN(C)c1c(NC(=O)N[C@H]2CCOc3ccccc32)cnc2c(-c3cc(Cl)cc(Cl)c3)cccc12` [Example 7.1, 1-[(4S)-Chroman-4-yl]-3-[8-(3,5-dichlorophenyl)-4-(dimethylamino)-3-quinolyl]urea] as the molecule, how does the EC50 [1] read?
A: < 1 µg/mL

Q: Which results are given for `O=C(Nc1cnc2c(-c3cc(Cl)cc(Cl)c3)cccc2c1C1CC1)[C@H]1CCOc2ccccc21` [Example 1.6, (4S)-N-[4-cyclopropyl-8-(3,5-dichlorophenyl)-3-quinolyl]chromane-4-carboxamide]?
A: EC50 [1]: < 1 µg/mL; EC50 (D. immitis microfilariae): < 0.1 µg/mL

Q: Which EC50 (D. immitis microfilariae) does the source give for `CON(C)c1c(NC(=O)[C@@H]2CCOc3ccccc32)cnc2c(-c3cc(Cl)cc(Cl)c3)cccc12` [Example 1.7, (4R)-N-[8-(3,5-dichlorophenyl)-4-[methoxy(methyl)amino]-3-quinolyl]chromane-4-carboxamide] here?
A: < 0.1 µg/mL

Q: For `CN(C)c1c(NC(=O)[C@H]2CCOc3ccccc32)cnc2c(-c3cc(Cl)cc(Cl)c3)ccnc12` [Example 6.2, (4S)-N-[8-(3,5-dichlorophenyl)-4-(dimethylamino)-1,5-naphthyridin-3-yl]chromane-4-carboxamide], which EC50 [1] is on record?
A: < 1 µg/mL

Q: And the EC50 (D. immitis microfilariae)?
A: < 0.1 µg/mL

Q: Which EC50 [1] does the source give for `CN(C)c1c(NC(=O)[C@@H]2CCOc3ccccc32)cnc2c(-c3cc(Cl)cc(Cl)c3)nccc12` [Example 4.2, (4R)-N-[8-(3,5-dichloro-dichlorophenyl)-4-(dimethylamino)-1,7-naphthyridin-3-yl]chromane-4-carboxamide] here?
A: < 1 µg/mL

Q: With `CN(C)c1c(NC(=O)[C@H]2CCOc3ccccc32)cnc2c(-c3cccc(Cl)c3Cl)cccc12` [Example 1.9, (4S)-N-[8-(2,3-dichlorophenyl)-4-(dimethylamino)-3-quinolyl]chromane-4-carboxamide] as the molecule, how does the EC50 [1] read?
A: < 1 µg/mL

Q: What about the EC50 (D. immitis microfilariae) of the same molecule?
A: < 0.1 µg/mL

Q: Which EC50 [1] does the source give for `CN(C)c1c(NC(=O)[C@H]2CCCc3ccccc32)cnc2c(-c3cc(Cl)cc(Cl)c3)cccc12` [Example 1.4, (1S)-N-[8-(3,5-dichlorophenyl)-4-(dimethylamino)-3-quinolyl]tetralin-1-carboxamide] here?
A: < 1 µg/mL

Q: What about the EC50 (D. immitis microfilariae) of the same molecule?
A: < 0.1 µg/mL

Q: What about the “Efficacy against Ls (developed larvae vs. untreated animals, Abbot's formula)” value (L. sigmodontis) of the same molecule?
A: > 80%

Q: How did the EC50 [1] turn out when `CN(C)c1c(NC(=O)[C@@H]2CCOc3ccccc32)cnc2c(-c3cc(Cl)cc(Cl)c3)cccc12` [Example 1.1, (4R)—N-[8-(3,5-dichlorophenyl)-4-(dimethylamino)-3-quinolyl]chromane-4-carboxamide] was run?
A: < 1 µg/mL

Q: What about the EC50 (D. immitis microfilariae) of the same molecule?
A: < 0.1 µg/mL

Q: And the “Efficacy against Tc (% reduction in worm numbers vs placebo, Abbot's formula)” value (T. colubriformis)?
A: > 80%

Q: Which EC50 [1] does the source give for `CN(C)c1c(NC(=O)[C@@H]2CCOc3ccccc32)cnc2c(-c3cc(Cl)cc(Cl)c3)ccnc12` [Example 6.1, (4R)—N-[8-(3,5-dichlorophenyl)-4-(dimethylamino)-1,5-naphthyridin-3-yl]chromane-4-carboxamide] here?
A: < 1 µg/mL

Q: What does the source list for `CN(C)c1c(NC(=O)[C@H]2CCOc3ccccc32)cnc2c(-c3cc(Cl)cc(C(F)(F)F)c3)cccc12` [Example 1.11, (4S)-N-[8-[3-chloro-5-(trifluoromethyl)phenyl]-4-(dimethylamino)-3-quinolyl]chromane-4-carboxamide]?
A: EC50 [1]: < 1 µg/mL; EC50 (D. immitis microfilariae): < 0.1 µg/mL

Q: `O=C(Nc1cnc2c(-c3cc(Cl)cc(Cl)c3)cccc2c1N1CCOCC1)[C@H]1CCOc2ccccc21` [Example 1.12, (4S)-N-[8-(3,5-dichlorophenyl)-4-morpholino-3-quinolyl]chromane-4-carboxamide] was tested. Which EC50 [1] did it give?
A: < 1 µg/mL

Q: What about the EC50 (D. immitis microfilariae) of the same molecule?
A: < 0.1 µg/mL
